Test results as given in PMC8305652, “Copper(II) Complexes Containing Natural Flavonoid Pomiferin Show Considerable In Vitro Cytotoxicity and Anti-inflammatory Effects” (International Journal of Molecular Sciences, 2021).

Assays:
[1] = tested on: ovarian carcinoma (A2780); assay: in vitro cytotoxicity, MTT assay; type: cell-based, human; conditions: at least three independent experiments
Procedure: (§1) The testing was performed on the following human cancer cell lines: breast adenocarcinoma (MCF-7), osteosarcoma (HOS), lung adenocarcinoma (A549), prostate adenocarcinoma (PC-3), ovarian carcinoma (A2780), cisplatin-resistant ovarian carcinoma (A2780R) and colorectal adenocarcinoma (Caco-2) obtained from ATCC collection of cell lines and cultivated according to producer’s instructions.

[2] = tested on: breast adenocarcinoma (MCF-7); assay: in vitro cytotoxicity, MTT assay; type: cell-based, human; conditions: at least three independent experiments
Procedure: as §1

[3] = tested on: prostate adenocarcinoma (PC-3); assay: in vitro cytotoxicity, MTT assay; type: cell-based, human; conditions: mean ± SD, at least three independent experiments
Procedure: as §1

THP-1 cells = assay: intracellular production of reactive oxygen species, DCFH2-DA; type: cell-based, human; conditions: THP-1, 200 nM; for increase of total ROS levels: 1.5 h experiment; for ROS production, long term: 23.5 h, pyocyanin 100 μM as radical-forming control
Procedure: THP-1 cells were used for the determination of the potential of tested compounds to initiate the intracellular ROS production, as was described previously with some minor modifications. Cells in serum-free RPMI 1640 medium without phenol red were seeded into black 96-well plates (5 × 10^4 cells/100 µL/well). After 2 h of incubation, the cells were treated with copper(II) complexes 1–5 at a concentration of 200 nM, and pyocyanin at a final concentration of 100 μM was added into control group to trigger production of reactive oxygen species (ROS), respectively. After the incubation at 37 °C for either 1.5 h or 23.5 h, dichlorofluorescin diacetate (DCFH2-DA) (5 μg/mL) was added and cells were kept under the same conditions hereafter. Thirty minutes later, fluorometric measurement of the fluorescent product DCF was conducted using a Tecan Infinite F200 microplate reader (Tecan, Männedorf, Switzerland) with λ(ex./em.) = 485/520 nm.

[4] = tested on: NF-κB in differentiated THP-1 macrophages; assay: immunocytochemical analysis of NF-κB nuclear translocation; type: cell-based, human; conditions: 200 nM, 1 h pre-treatment, 1 h LPS (1 µg/mL), fluorescence microscopy
Procedure: To differentiate the THP-1 monocytes to macrophages, phorbol myristate acetate (PMA) was used at the final concentration of 50 ng/mL. The cells were split into 8-well cell culture glass slides (SPL, Gyeonggi-do, South Korea) at a concentration of 3 × 10^5 cells/300 µL/well. Monocytes were differentiated by PMA treatment for 24 h and then the medium was changed. Macrophages were washed with PBS, transferred into a serum-free medium and incubated for 2 h. After 1 h pre-treatment with 5 (200 nM), prednisone (200 nM) or 0.1% DMF (v/v) solution used as a control, NF-κB nuclear translocation was triggered by the addition of LPS (1 µg/mL). The macrophages were washed with PBS and fixed with 4% formaldehyde 1 h later. Permeabilization was performed using 0.1% v/v Triton X-100 (Merck). After blocking with 3% bovine serum albumin (BSA; Merck, Darmstadt, Germany) dissolved in PBS, the primary antibody anti-NF-κB p65 (Abcam, Cambridge, UK, product No. ab16502) was added at a concentration of 2.5 µg/mL and incubated at 4 °C overnight. Then a secondary anti-rabbit antibody labelled by Alexa Fluor 488® (Cell Signalling, Danvers, MA, USA) product No. 4412, dilution 1:1500) was applied in dark at 4 °C for 1 h. […] The NF-κB migration activity was evaluated by fluorescent microscopy after the nail polish cured using the fluorescence microscope IX73 (Olympus, Tokyo, Japan).

[5] = tested on: caspases 3/7 in A2780 cells; assay: activation of caspases 3/7, flow cytometry; type: cell-based, human; conditions: A2780, 15 µM, 24 h
Procedure: Both methods were performed according to the manufacturers’ protocols with 1 modification in the caspase induction assay, which was the use of the CellEvent^TM Caspase-3/7 Green Detection Reagent only for detection of Caspase-3/7 activation. […] After 24 h, the cells were washed once with PBS (0.1 M, pH 7.4), detached with trypsin (0.25% in ethylenediaminetetraacetic acid (EDTA), Sigma-Aldrich), resuspended in 500 µL of the culture medium and divided into 2 separate tubes, the first for apoptosis assay and the second one for caspase activation analysis. After staining with appropriate dyes, samples were analyzed on a BD FACSVerse flow cytometer (Becton Dickinson, Franklin Lakes, NJ, USA) in 3 separate experiments, while at least 10^4 events were recorded for each sample prepared in duplicate.

[6] = tested on: IκB and MAPKs p38, ERK1/2, JNK in THP-1 macrophages; assay: IκB and MAPK signalling pathways, Western blot; type: cell-based, human; conditions: 200 nM, 1 h pre-treatment, 30 min after LPS
Procedure: Macrophages derived from THP-1 cells were used to evaluate the influence of tested complexes on the signalling pathway leading to activation of transcription factors NF-κB and AP-1. To differentiate THP-1 monocytes into macrophages, the cells were stimulated with phorbol myristate acetate (PMA), as described above. The level of inhibitor of NF-κB (IĸB) and phosphorylation (activation) of mitogen-activated protein kinases (MAPKs) p38, ERK1/2, and JNK was determined in a way similar to that described previously. Above mentioned proteins were detected by the following primary antibodies: anti-IĸB-α at the dilution 1:500 (Cell Signalling, Danvers, MA, USA; products No. 4814), anti-phospho-SAPK/JNK at the dilution 1:500 (Cell Signalling; products No. 4668), anti-p44/42 MAPK (ERK1/2) at the dilution 1:1000 (Cell Signalling; products No. 4695), anti-phospho-p44/42 MAPK (ERK1/2) at the dilution 1:1000 (Cell Signalling; products No. 4370), anti-p38 MAPK at the dilution 1:1000 (Cell Signalling; products No. 9212), anti-phospho-p38 MAPK antibodies at the dilution 1:1000 (Cell Signalling; products No. 4511), anti-SAPK/JNK at a dilution of 1:250 (Sigma-Aldrich, product No. SAB4200176), and anti-β-actin at a dilution of 1:5000 (Abcam, Cambridge, UK; product No. 8226). […] The amount of bound secondary antibody was determined using ECL reagent (Bio-Rad, Hercules, CA, USA). […]

[7] = tested on: ACHN, NCI-H23, PC-3, MDA-MB-231, LOX-IMVI, colon carcinoma cell lines; parameters: method as in PMID 17662606; conditions: 24 h of incubation, range over cell lines; cited from earlier work

Molecule	IC50 ([1]; mean ± SD) [µM]	IC50 ([2]; mean ± SD) [µM]	IC50 [3] [µM]	increase of total ROS levels (THP-1 cells) [%]	ROS production, long term (THP-1 cells)	NF-κB nuclear translocation [4]	activation of executioner caspases 3/7 [5]	IκB and MAPK intracellular signalization [6]	IC50 ([1]; Homo sapiens, A2780, mean ± SD) [µM]	IC50 ([2]; Homo sapiens, MCF7, mean ± SD) [µM]	IC50 ([3]; Homo sapiens) [µM]	ROS production, short term (THP-1 cells; 1.5 h)	GI50 [7] [µM]
CC(C)=CCc1c2c(c3occ(-c4ccc(O)c(O)c4)c(=O)c3c1[O-])C=CC(C)(C)O2.CO.O=[N+]([O-])[O-].[Cu+2].c1ccc(-c2ccnc3c2ccc2c(-c4ccccc4)ccnc23)cc1 [Complex 4, (3-(3,4-dihydroxyphenyl)-8,8-dimethyl-6-(3-methylbut-2-en-1-yl)-4H,8H-benzo[1,2-b:3,4-b′]dipyran-4-one-5-olato-κ^2O4:O5)(4,7-diphenyl-1,10-phenanthroline–κ^2N:N)copper(II) nitrate methanol solvate]	12.8 ± 3.1	16 ± 1.1	13 ± 1.1	87	pro-oxidant effect almost diminished	blocked the nuclear translocation	significantly increase the antiproliferative effects over the free pomiferin and reference drug cisplatin	–	–	–	–	–	–
(3-(3,4-dihydroxyphenyl)-8,8-dimethyl-6-(3-methylbut-2-en-1-yl)-4H,8H-benzo[1,2-b:3,4-b′]dipyran-4-one-5-olato-κ^2O4:O5)(dipyrido[3,2-a:2′,3′-c]phenazine–κ^2N4:N5)copper(II) nitrate methanol solvate [Complex 5]	2.5 ± 0.9	3 ± 0.5	3.3 ± 0.1	–	elevated the ROS levels similarly as pyocyanin	the NF-κB levels in the nucleus decreased	–	did not affect the intracellular signalization	–	–	–	–	–
CC(C)=CCc1c2c(c3occ(-c4ccc(O)c(O)c4)c(=O)c3c1O)C=CC(C)(C)O2 [pomiferin, 3-(3,4-dihydroxyphenyl)-5-hydroxy-8,8-dimethyl-6-(3-methylbut-2-ene-1-yl)-4H,8H-benzo[1,2-b:3,4-b′]dipyran-4-one]	–	–	–	–	did not increase the amount of ROS	–	–	–	8.4 ± 2	22 ± 0.1	18.5 ± 0.7	did not increase the amount of ROS	1.32 to 13.3
CC(C)=CCc1c2c(c3occ(-c4ccc(O)c(O)c4)c(=O)c3c1[O-])C=CC(C)(C)O2.Cc1ccnc(-c2cc(C)ccn2)c1.O.O.O=[N+]([O-])[O-].[Cu+2] [Complex 2, (3-(3,4-dihydroxyphenyl)-8,8-dimethyl-6-(3-methylbut-2-en-1-yl)-4H,8H-benzo[1,2-b:3,4-b′]dipyran-4-one-5-olato-κ^2O4:O5)(4,4′-dimethyl-2,2′-bipyridine–κ^2N:N)copper(II) nitrate dihydrate]	5.4 ± 2.4	29.6 ± 2	> 50	55	pro-oxidant effect almost diminished	–	–	did not affect the intracellular signalization	–	–	–	–	–
